Laboratory results from publication PMC9542285, “Novel amides of mycophenolic acid and some heterocyclic derivatives as immunosuppressive agents” (Journal of Enzyme Inhibition and Medicinal Chemistry, 2022).

Columns and labels:
PBMCs [1] = assay: In vitro cytotoxicity assay with XTT dye, PBMCs; format: cell-based, human; conditions: Homo sapiens, PBMC, 72 h incubation then 24 h XTT, read-out: IC50 PBMCs (XTT test)
Method: (§1) Figure 2. Representative dose-response curve to determine the IC50 of MPA and A2. […] Next, plates were incubated for 24 h with XTT reagent. The conversion of water-soluble yellow tetrazolium XTT salt into orange formazan was monitored by measuring the optical density at 450 nm on microplate spectrophotometer. For XTT assay at least three experiments were performed and values are presented as mean ± SD.
(§2) The cytotoxic effect of derivatives of MPA was measured using in vitro 2,3-bis(2-methoxy-4-nitro-5-sulfophenyl)-2H-tetrazolium-5-carboxanilide (XTT)-based assay (Roche, Basel, Swiss). PBMCs suspended in complete X–VIVO20 medium and T-Jurkat cells suspended in complete RPMI-1640 medium were added on a 96-well plate at a concentration of 5 × 10^5 cells/50 µL/well. […] As a background control we used medium without cells, as a positive control we used cells untreated with compounds. After 48 h for T-Jurkat cells and 72 h for PBMCs of incubation in a humidified atmosphere with 5% CO2 at 37 °C, 50 µL of XTT reagent (freshly prepared according to the manufacturer’s procedure) was added to all samples. Plates were incubated for 24 h (5% CO2 at 37 °C). The conversion of water-soluble yellow tetrazolium XTT salt into orange formazan was monitored by measuring the optical density (OD) at 450 nm on Agilent BioTek Epoch Microplate Spectrophotometer (Agilent Technologies, Santa Clara, CA), with a background wavelength at 690 nm. […] Each sample was performed in triplicates.

T-Jurkat cell line = assay: In vitro cytotoxicity assay with XTT dye, T-Jurkat; format: cell-based, human; conditions: Homo sapiens, 48 h incubation then 24 h XTT, read-out: IC50 T-Jurkat (XTT test)
Method: as §1, §2

T-Jurkat cells = assay: Dye-based proliferation assay VPD450 (flow cytometry), T-Jurkat; format: cell-based, human; conditions: Homo sapiens, 48 h
Method: (§3) Figure 4. […] Cell proliferation was analysed using flow cytometry.

PBMCs [2] = assay: VPD450 proliferation of PBMCs with or without GMP (IMPDH mechanism test); format: cell-based, human; conditions: for Mechanism of action (IMPDH inhibition, GMP reversal): PBMCs, with or without 50 µM GMP, 72 h
Method: According to reported experiment, suppression of cell proliferation caused by IMPDH inhibitors in the presence of guanosine source, e.g. gunosine monophosphate (GMP) is reversible.
Figure 5. […] Cell proliferation was analysed using flow cytometry.
Cells proliferation was analyzed using flow cytometry.
(1 picture or pasted object on this page, not shown here)

PBMCs [3] = assay: cells; conditions: Homo sapiens, PBMC, 72 h, read-out: EC50 PBMCs (VPD450 proliferation), PBMCs stimulated with anti-CD3/anti-CD28 beads, 72 h
Method: Cell proliferation was analysed using flow cytometry. The results are expressed as the mean ± SD.
PBMCs and T-Jurkat cells were washed twice with warm PBS (37 °C), suspended in fresh PBS at a final concentration of 10–30 × 10^6 cells/mL and labelled with 1 µL of VPD450 (BD Biosciences, Franklin Lakes, NJ) at 37 °C for 15 min. Each 5 min cells were vortexed to provide uniform staining[42]^,[43]. Subsequently, cells were washed with PBS and then with complete medium (X-VIVO20 for PBMCs and RPMI-1640 for T-Jurkat cells). After this step, cells were suspended in fresh complete medium, seeded on 96-well plates (1 × 10^6 cells/well). PBMCs were additionally stimulated with magnetic beads coated with anti-CD3 and anti-CD28 antibodies (Invitrogen, Carlsbad, CA) in 1:0.5 cell:bead ratio. Of 100 µL of examined derivatives of MPA were added to experimental wells to receive final concentrations: 100; 10; 1; 0.1; 0.01 µM. In parallel, stained and not stimulated cells, as well as stained and stimulated cells, were seeded in the same concentration as controls. After 48 h for T-Jurkat and 72 h for PBMCs, cells were analysed with flow cytometer LSRFortessa (BD Biosciences, Franklin Lakes, NJ) and Kaluza C Flow Cytometry Analysis Software (Beckman Coulter, Brea, CA). […] Cell viability was determined at the highest concentration of the tested compound. For this purpose, TC20 cell counter (Biorad) was used with trypan blue exclusion.

[4] = In vitro cytotoxicity assay with XTT dye, T-Jurkat; format: cell-based, human; conditions: human, T-Jurkat cell line, […], trypan blue exclusion
Method: as §1, §2

[5] = Dye-based proliferation assay VPD450 (flow cytometry), T-Jurkat; format: cell-based, human; conditions: human, VPD450-labelled T-Jurkat cells, […], trypan blue exclusion
Method: as §3

[6] = Precipitation / solubility of compounds in culture; format: physicochemical; parameters: key to Precipitating compound flag (XTT test, PBMCs) / Precipitating compound flag (VPD450 assay, PBMCs): (↓) – precipitating compound; conditions: for Precipitating compound flag (VPD450 assay, PBMCs) / Precipitating compound flag (XTT test, PBMCs): PBMC culture, DMSO with Tween20; for Solubility in PBMC culture: XTT assay conditions
Method: Drug toxicity that affects the cells can cause a variety of serious side effects, including uncontrolled suppression of the immune system. In order to check the cytotoxicity of the tested compounds, the XTT test was performed, the results of which are presented in Table 2. All tested compounds were characterised by lower cytotoxicity than native MPA. Unfortunately, several compounds (marked with ↓) were partially insoluble in culture despite surfactant addition. They were investigated too, but one could not use them as an immunosuppressive drug in their current form. Taking into account the EC50 values obtained in the proliferation tests ([…] staining, Table 3), the compound A2 was selected as the one with the highest immunosuppressive potential and the possibility of its later use in therapy, and is presented in the graphs (Figures 2–4).
To prepare appropriate concentrations of tested compounds, the substances were dissolved in DMSO (Sigma Aldrich, Poland) with 1% addition of Tween20 to obtain final concentration of 0.01 M. The solution was diluted 10-fold and then 5-fold in appropriate medium without additives (RPMI-1640 for T-Jurkat cell line; X-VIVO20 for PBMCs) to obtain the following concentrations: 200; 20; 2; 0.2; 0.02 µM.

| Compound | IC50 (PBMCs [1]) [µM] | IC50 (T-Jurkat cell line) [µM] | EC50 (T-Jurkat cells) [µM] | Mechanism of action (IMPDH inhibition, GMP reversal) (PBMCs [2]) | melting point | EC50 (PBMCs [3]) [µM] | viability at 48 h, 100 µM [4] [%] | viability at 48 h, 100 µM [5] [%] | Precipitating compound flag (VPD450 assay, PBMCs) [6] | Precipitating compound flag (XTT test, PBMCs) [6] | Solubility in PBMC culture [6] | Effect of GMP addition on proliferation (PBMCs [2]) |
| --- | --- | --- | --- | --- | --- | --- | --- | --- | --- | --- | --- | --- |
| COc1c(C)c2c(c(O)c1C/C=C(\C)CCC(=O)NCc1ncccn1)C(=O)OC2 [A7, N-[1-(pirymidin-2-yl)methyl] mycophenolate] | 70.48 ± 0.035 | 10.739 ± 0.003 | 9.51 ± 0.047 | consistent with that of MPA | 107 to 110 °C | 29.45 ± 0.025 |  |  |  |  |  |  |
| COc1c(C)c2c(c(O)c1C/C=C(\C)CCC(=O)Nc1nc3ccccc3[nH]1)C(=O)OC2 [A3, N-(1H-benzo[d]imidazol-2-yl) mycophenolate] | 94.538 ± 0.047 |  |  |  | 253 to 255 °C (dec.) | 120 | 74 | 55 |  |  |  |  |
| COc1c(C)c2c(c(O)c1C/C=C(\C)CCC(=O)Nc1nc3ccc(F)cc3s1)C(=O)OC2 [A11, N-(6-fluorobenzo[d]thiazol-2-yl) mycophenolate] | 139.86 ± 0.07 |  | 63.21 ± 0.316 |  | 232 to 236 °C (dec.) | 83.07 ± 0.012 | 56 |  | (↓) | (↓) | limited solubility |  |
| COc1c(C)c2c(c(O)c1C/C=C(\C)CCC(=O)Nc1ccc3ocnc3c1)C(=O)OC2 [A6, N-(benzo[d]oxazol-5-yl) mycophenolate] | 55.487 ± 0.028 | 31.407 ± 0.002 | 13.84 ± 0.069 |  | 84 to 87 °C | 58.27 ± 0.021 |  |  |  |  |  |  |
| COc1c(C)c2c(c(O)c1C/C=C(\C)CCC(=O)Nc1ccc3scnc3c1)C(=O)OC2 [A5, N-(benzo[d]thiazol-5-yl) mycophenolate] | 45.73 ± 0.023 | 75.04 ± 0.005 | 36.05 ± 0.18 |  | 114 to 117 °C | 76.98 ± 0.01 |  |  |  |  |  |  |
| COc1c(C)c2c(c(O)c1C/C=C(\C)CCC(=O)Nc1nc3ccc([N+](=O)[O-])cc3s1)C(=O)OC2 [A15, N-(6-nitrobenzo[d]thiazol-2-yl) mycophenolate] | 137.63 ± 0.069 | 12.717 ± 0.005 | 13.37 ± 0.067 |  | 278 to 280 °C (dec.) | 44.59 ± 0.013 |  |  | (↓) | (↓) | limited solubility |  |
| COc1c(C)c2c(c(O)c1C/C=C(\C)CCC(=O)Nc1nc3ccc(C(F)(F)F)cc3s1)C(=O)OC2 [A14, N-[6-(trifluoromethyl)benzo[d]thiazol-2-yl] mycophenolate] | 81.482 ± 0.041 | 34.749 ± 0.003 | 12.58 ± 0.063 |  | 261 to 264 °C (dec.) | 30.71 ± 0.008 |  |  |  |  |  |  |
| COc1c(C)c2c(c(O)c1C/C=C(\C)CCC(=O)Nc1nc3c(OC)cccc3s1)C(=O)OC2 [A16, N-(4-methoxybenzo[d]thiazol-2-yl) mycophenolate] | 54.578 ± 0.027 |  |  |  | 165 to 168 °C | 46.29 ± 0.011 | 69 | 73 | (↓) | (↓) | limited solubility |  |
| COc1c(C)c2c(c(O)c1C/C=C(\C)CCC(=O)Nc1ccc3ncsc3c1)C(=O)OC2 [A4, N-(benzo[d]thiazol-6-yl) mycophenolate] | 24.639 ± 0.015 | 37.789 ± 0.002 | 14.73 ± 0.074 |  | 175 to 177 °C | 62.26 ± 0.01 |  |  |  |  |  |  |
| COc1ccc2nc(NC(=O)CC/C(C)=C/Cc3c(O)c4c(c(C)c3OC)COC4=O)sc2c1 [A8, N-(6-methoxybenzo[d]thiazol-2-yl) mycophenolate] | 93.196 ± 0.047 | 51.124 ± 0.008 | 22.04 ± 0.11 |  |  | 133.5 ± 0.007 |  |  | (↓) | (↓) | limited solubility |  |
| COc1c(C)c2c(c(O)c1C/C=C(\C)CCC(=O)O)C(=O)OC2 [MPA, Mycophenolic acid] | 10.52 ± 0.015 | 0.509 ± 0.008 | 0.49 ± 0.002 |  |  | 0.723 ± 0.011 |  |  |  |  |  | proliferation increases after the addition of GMP |
| COc1c(C)c2c(c(O)c1C/C=C(\C)CCC(=O)Nc1nc3c(Cl)cccc3s1)C(=O)OC2 [A18, N-(4-chlorobenzo[d]thiazol-2-yl) mycophenolate] | 74.426 ± 0.037 | 10.261 ± 0.001 | 11.28 ± 0.056 | consistent with that of MPA |  | 14.7 ± 0.02 |  |  |  |  |  |  |
| COc1c(C)c2c(c(O)c1C/C=C(\C)CCC(=O)Nc1nc3cc(C)c(C)cc3s1)C(=O)OC2 [A10, N-(5,6-dimethylbenzo[d]thiazol-2-yl) mycophenolate] | 129.41 ± 0.064 |  | 26.69 ± 0.133 |  | 246 to 247 °C (dec.) | 85.24 ± 0.012 | 51 |  |  |  |  |  |
| COc1c(C)c2c(c(O)c1C/C=C(\C)CCC(=O)Nc1nc3ccc(Br)cc3s1)C(=O)OC2 [A13, N-(6-bromobenzo[d]thiazol-2-yl) mycophenolate] | 63.173 ± 0.032 | 58.069 ± 0.002 | 12.64 ± 0.063 |  | 265 to 267 °C (dec.) | 39.47 ± 0.013 |  |  |  |  |  |  |
| COc1c(C)c2c(c(O)c1C/C=C(\C)CCC(=O)Nc1nc3ccc(Cl)cc3s1)C(=O)OC2 [A12, N-(6-chlorobenzo[d]thiazol-2-yl) mycophenolate] | 62.975 ± 0.031 | 12.833 ± 0.008 | 12.16 ± 0.061 |  | 261 to 264 °C (dec.) | 38.37 ± 0.017 |  |  | (↓) | (↓) | limited solubility |  |
| COc1c(C)c2c(c(O)c1C/C=C(\C)CCC(=O)Nc1nc3ccc(C)cc3s1)C(=O)OC2 [A9, N-(6-methylbenzo[d]thiazol-2-yl) mycophenolate] | 94.6 ± 0.047 | 85.7 ± 0.004 | 22.72 ± 0.113 |  | 257 to 260 °C (dec.) | 136.2 ± 0.011 |  |  | (↓) | (↓) | limited solubility |  |
